First: CCc1nc2c(OCc3ccc(OC)cc3)cccc2[nH]1
Second: CC(Oc1ccc(COc2ccc(Cl)cc2Cl)cc1)C(=O)O (centres undefined)
The melting point of the first is lower: 73.8 to 77.9 °C for the first, 122 to 123 °C for the second.

First: Clc1ccc2c(NCCN3CCCCC3)ccnc2c1
Second: O=C1NCCc2c1c1ccccc1n2CC1CCCC1
The melting point of the first is lower: 148 to 151 °C for the first, 179 to 181 °C for the second.

Compared with `O=C1c2cc(CCCCOC(=O)C(F)(F)F)ccc2OCc2sccc21`, `O=C(NCCO)c1cc(-c2cccc3cc(Cc4cccc(C(F)(F)F)c4)sc23)ncc1F` is higher in melting point: 65.5 to 67.5 °C for the first, 110 to 111 °C for the second.

First: Cc1cn2cccc(CCl)c2n1
Second: Cc1sc(-n2nc(C(=O)O)nc2CCl)c(C(=O)c2ccccc2)c1C
The melting point of the first is lower: 110 to 112 °C for the first, 162 to 163 °C for the second.

First: COc1ccc(C(=Cc2cc3c(cc2[N+](=O)[O-])OCO3)C(=O)O)cc1
Second: COc1ccc(CC(=O)Nc2cccc(/C=C/c3nc(C4CCC4)cs3)c2)c(C(=O)O)c1
The melting point of the first is lower: 184 to 185 °C for the first, 190 to 191 °C for the second.

First: COc1cc2c(cc1OC)CN(CCCOc1ccc(NC(=O)c3cccc4c(=O)c5cccc(OC)c5[nH]c34)cc1)CC2
Second: COC(=O)C(Oc1cccc2ccccc12)c1ccc(Oc2ccc(Cl)cc2)cc1 (centres undefined)
The melting point of the first is higher: 190 °C for the first, 107 to 110 °C for the second.

First: C=CC(=O)OCC(CCCCCCCCCCCOc1ccc(-c2cccc(F)c2F)cc1)COC(=O)C=C
Second: CCCCCCCCCCOC(=O)c1cc(C(=O)OCCCCCCCCCC)cc([N+](=O)[O-])c1
The melting point of the first is lower: 33.4 to 34.4 °C for the first, 48 to 50 °C for the second.

First: O=C(O)c1sc2cc(OCc3cccnc3)ccc2c1Sc1ccccc1
Second: O=C(O)COc1ccc(C(=O)Nc2ccccc2Sc2ccccc2-c2nnn[nH]2)cc1
The melting point of the first is lower: 236 to 238 °C for the first, 252 to 253 °C for the second.

First: O=C(O)c1ccc(Cn2ccn(C3CCc4ccccc4C3)c2=S)cc1 (centres undefined)
Second: CCCc1ccc(C(=O)OCC)n1Cc1ccc(-c2ccccc2C(=O)O)cc1
The melting point of the first is higher: 211 to 212 °C for the first, 111 to 115 °C for the second.

First: O=C(C1CCCC1)N1CCc2cc(S(=O)(=O)N3CCN(c4cccc(Cl)c4)CC3)ccc21
Second: NS(=O)(=O)c1ccc(S(=O)(=O)c2ccc(OC(=O)c3cccnc3)cc2)s1
The melting point of the first is lower: 166 to 167 °C for the first, 200 to 201 °C for the second.

First: O=C(Nc1cccc2cc(Br)cnc12)C1c2ccccc2-c2ccccc21
Second: O=c1c(Br)c(O)c2cccnc2n1-c1ccccc1
The melting point of the first is lower: 196 to 198 °C for the first, over 280 °C for the second.

First: N#CC(C#N)=C(NCCCN1CCCCC1)NCCCN1CCCCC1
Second: ON=C1C2CCN(CC2)C1CN1CCCC1 (centres undefined)
The melting point of the first is lower: 110 to 112 °C for the first, 194 to 195 °C for the second.

First: NC(=O)c1coc2ccccc2c1=O
Second: Oc1cc2ccccc2nc1O
The melting point of the first is lower: 220 to 225 °C for the first, 261 to 262 °C for the second.

First: OC[C@@H](O)CNCc1ccccc1
Second: CN(C)CCCC(O)c1ccc(F)cc1-c1ccccc1 (centres undefined)
The melting point of the first is higher: 63 °C for the first, 60 to 62 °C for the second.

First: Nc1nc(Cl)cc(NCC2CC2(Cl)Cl)n1 (centres undefined)
Second: COC(=O)c1ccnc(Cl)c1N
The melting point of the first is lower: 78 to 79 °C for the first, 91 to 92 °C for the second.

First: Cc1cc2cccc(-c3ccc(Cl)cc3Cl)n2n1
Second: Cc1cc(Nc2nc(-c3ccc(Cl)c(Cl)c3)nc3ccccc23)[nH]n1
The melting point of the first is lower: 86.9 to 90 °C for the first, 274 °C for the second.

Compared with `Cc1cc(C)c2nc(NC3CCN(CCC(N)=O)CC3)n(Cc3nc(C)ccc3O)c2c1`, `Nc1ccc(C(=O)N(CCN2CCC(C(=O)c3ccc(F)cc3)CC2)c2cccc(N)c2)cc1` is lower in melting point: 212 °C for the first, 108 to 110 °C for the second.

Compared with `Cc1ncccc1-c1nc(C(F)(F)F)cn1-c1ccc(S(C)(=O)=O)cc1`, `Cc1cc(-c2cc(C(F)(F)F)n3ncc(-c4ccncc4)c3n2)ccc1Cl` is higher in melting point: 160 to 161 °C for the first, 247 °C for the second.

`Cc1cccc(NC(=O)C(C)Oc2ccc(Oc3ccc(C#N)cc3)cc2)n1` (centres undefined) and `O=Cc1ccc(-c2cccc(-c3ccc(OC(F)(F)F)cc3)n2)cc1` cannot be ordered by melting point: 109 to 111 °C for the first, 109 to 112 °C for the second.

First: Cc1cc(O)ccc1-n1cc(C(=O)O)c(=O)cc1C=NN1CCOCC1
Second: COc1ccc2[nH]c(S(=O)Cc3nccc(N4CCOCC4)c3F)nc2c1 (centres undefined)
The melting point of the first is higher: 267 to 268 °C for the first, 142 to 146 °C for the second.

First: CCc1nc(NC(C)C)c([N+](=O)[O-])c(SC2CCCCC2)n1
Second: COC(=O)[C@@H]1CCCN1c1ccc(C)c([N+](=O)[O-])c1O
The melting point of the first is lower: 69 to 71 °C for the first, 111 to 114 °C for the second.

Compared with `Cc1nn(C)c2nc(-c3ccncc3)nc(N)c12`, `CC(C)n1cnc2c(Nc3ccccn3)nc(F)nc21` is lower in melting point: 235 to 236 °C for the first, 150 to 152 °C for the second.

First: CC(C)(C)OC(=O)c1cc(I)ccc1OCc1ccc2ccccc2c1
Second: Cc1ccc2cccc(OCc3c(Cl)ccc(S(=O)(=O)N(C)C(C)(C)C)c3Cl)c2n1
The melting point of the first is lower: 90 °C for the first, 160 to 162 °C for the second.

Compared with `COc1c(Br)cc(N)cc1C(C)=O`, `Cc1c(F)ccc(C(=O)O)c1F` is higher in melting point: 93 to 94 °C for the first, 168 to 170 °C for the second.

Compared with `CCCSNc1ccc(N)cc1`, `NC(=O)c1ccc(-c2ccc(N)cc2)cc1` is higher in melting point: 213 to 225 °C for the first, 281 to 284 °C for the second.

Compared with `N#CCC1CC(c2ccccc2)=NO1` (centres undefined), `Brc1cc(-c2ccccc2)on1` is lower in melting point: 79 to 80.5 °C for the first, 71 to 73 °C for the second.

First: CCOC(=O)/C=C/c1ccc(-c2ccc(O)c(C34CC5CC(CC(C5)C3)C4)c2)c(C)c1
Second: CN(Cc1ccc(S(C)(=O)=O)s1)C(=O)C12CC3CC(CC(C3)C1)C2
The melting point of the first is higher: 193 to 195 °C for the first, 114 to 116 °C for the second.

First: O=C(O)CCCCCOc1ccc([N+](=O)[O-])cc1
Second: COC(=O)C(CO)Nc1ccccc1[N+](=O)[O-] (racemic)
The melting point of the first is lower: 104 to 107 °C for the first, 138 to 140 °C for the second.

`CC(NC(=O)Cc1cc(F)cc(F)c1)C(=O)NC1C(=O)NCc2cc(Cc3ccccc3)ccc21` (centres undefined) and `O=C1CNC(=O)C(Cc2cccc(NCc3ccccc3)c2)N1` (centres undefined) cannot be ordered by melting point: 159 to 166 °C for the first, 160 to 161 °C for the second.

First: COc1ccnc(CSc2nc3cc(OC(F)F)ccc3[nH]2)c1OC
Second: COc1ccc2c(=O)[nH]nc(-c3ccccc3)c2c1
The melting point of the first is lower: 104 to 108 °C for the first, 230 to 235 °C for the second.

Compared with `CCOC(=O)NCCOc1ccc(Oc2cc(F)cc(F)c2)cc1`, `CC(COc1ccc(CC2SC(=O)NC2=O)cc1)NCC(O)c1cccc(Cl)c1` (centres undefined) is higher in melting point: 54 to 56 °C for the first, 100 to 125 °C for the second.

First: CNC(=O)ON=C1Oc2ccccc2OC1(C)C
Second: CC1(C)C=C(c2ccccc2O)c2cc(C#N)ccc2O1
The melting point of the first is higher: 174 to 176 °C for the first, 139 to 140 °C for the second.

First: COC(=O)N(C)N=C(c1ccc(Cl)cc1)C(C)(C)C
Second: CNC(=O)C(C)n1c(-c2ccc(Cl)cc2)nc2cccnc21 (centres undefined)
The melting point of the first is lower: 58 to 60 °C for the first, 217 to 218 °C for the second.

First: O=C1NCCN1C1CCN(CCC2COc3ccccc3O2)CC1 (centres undefined)
Second: CN1CCN(C2=Nc3ccccc3N(C)c3sc4ccccc4c32)CC1
The melting point of the first is higher: 155 to 157 °C for the first, 88 to 90 °C for the second.

First: NC(=S)Nc1cc(C(F)(F)F)ccc1N1CCOCC1
Second: CC(=NNc1ccc(C(F)(F)F)cc1)C(=O)NCc1ccc(Cl)nc1
The melting point of the first is higher: 196 to 197 °C for the first, 184 °C for the second.

First: CC(S(=O)(=O)c1ccc(OC(F)(F)F)cc1)S(=O)(=O)C(F)(F)F (centres undefined)
Second: O=C1C(=Cc2c[nH]c3ccccc23)N(Cc2ccccc2)C(=O)N1Cc1cc(C(F)(F)F)cc(C(F)(F)F)c1
The melting point of the first is lower: 77 to 80 °C for the first, 154 to 156 °C for the second.

Compared with `COC(=O)CCc1ccc(NC(=O)C(Cn2ccnc2)NS(=O)(=O)c2ccc(Cl)cc2)cc1` (racemic), `Cc1c(C(=O)C(=O)NC2=CC(=O)OC2)c2ccccc2n1Cc1ccc(Cl)cc1` is higher in melting point: 79 to 82 °C for the first, 254 to 256 °C for the second.

First: CC1Nc2ccccc2-c2c([N+](=O)[O-])cnn21 (centres undefined)
Second: CN1C(=O)CC[C@]2(C)c3ccc(-c4ccccc4F)cc3CC[C@@H]12
The melting point of the first is higher: 173 to 175 °C for the first, 142 to 150 °C for the second.

Compared with `O=C(O)CCC(C(=O)O)N1C(=O)c2ccccc2C1=S` (centres undefined), `O=C(O)CC(CC(=O)O)Sc1nc2ccccc2s1` is lower in melting point: 157 °C for the first, 153 to 154 °C for the second.

First: C=CCOC(=O)N=C(OCC)N1Cc2ccccc2-c2ccccc2C1
Second: O=Cc1ccccc1OCCOc1ccccc1C=O
The melting point of the first is lower: 76 to 77.5 °C for the first, 129 °C for the second.

First: O=C1NC(=O)C2(CCCCC2)N1c1ccc(I)cc1
Second: COc1ccc(N2CCN(c3ccc(NC4=NC(C)(C)CS4)cc3)CC2)cc1
The melting point of the first is higher: 249 to 251 °C for the first, 232 °C for the second.

First: CC(C)(C)OC(=O)N1CCC(c2ccc(Nc3nc4c(-c5cnn(-c6ccc(F)cc6)c5)cccn4n3)cc2)CC1
Second: COc1ccc(-c2ccc(-c3ccccc3)nc2-c2ccc(OCCN3CCCC3)cc2)cc1
The melting point of the first is higher: 176 to 178 °C for the first, 100 to 103 °C for the second.

First: CCN(CC)C(=O)N[C@H]1CC[C@H](NC(=O)N(CC)CC)CC1
Second: CCOC1CC2(C)C(CCC3C4CC(C)C(C(C)=O)C4(C)CC(=O)C32)CC1O (centres undefined)
The melting point of the first is higher: 225 to 228 °C for the first, 178 to 179 °C for the second.

First: C1=Cc2ccccc2ON1
Second: CSc1ccccc1C=NO
The melting point of the first is higher: 134 to 136 °C for the first, 88 to 89 °C for the second.

First: Cc1oc2c(C(O)CN)cccc2c1C (centres undefined)
Second: CNC(=S)Nc1cc(Cl)ccc1C
The melting point of the first is lower: 73 °C for the first, 139 to 140 °C for the second.

Compared with `CCCCCC1(C)OCc2c1cnc(C)c2OCC(=O)O` (centres undefined), `CCOCC1=C(C(=O)OCC)C(c2cccc([N+](=O)[O-])c2)C(C(=O)OCC)=C(C)N1` (centres undefined) is lower in melting point: 211 °C for the first, 120 to 122 °C for the second.

First: Cc1nc(-n2cnn(Cc3ccc(F)cc3)c2=O)sc1C#N
Second: O=C(O)Cc1ccc2c(c1)Cc1cccnc1O2
The melting point of the first is lower: 190 to 192 °C for the first, 218 °C for the second.

First: CC(=O)OCC(=O)C1(O)C(C)CC2C3CCC4=CC(=O)CCC4(C)C3=CCC21C (centres undefined)
Second: Cc1c(NS(=O)(=O)c2ccccc2)cc(C(C)(C)C)cc1SC1=C(O)CC(CCc2ccc(O)cc2)(C2CCCC2)OC1=O (racemic)
The melting point of the first is higher: 197 to 201 °C for the first, 125 to 127 °C for the second.

First: CC(C)CCNC(=O)c1ccc2c(c1)N(C(C)CN1CCCC1CO)c1ccccc1S2 (centres undefined)
Second: CC(C)c1ccc(N(Cc2ccc(N(C)C)cc2)C(=O)C2CCOc3cc(O)ccc32)cc1 (centres undefined)
The melting point of the first is lower: 140 °C for the first, 173 °C for the second.

First: CC(=O)N(C(=O)c1ccccc1O)C(C)C(=O)O (racemic)
Second: Cc1ccc(-c2ccc3c(c2)C=C(C(=O)Nc2ccc(CNCc4ccccc4)cc2)CCO3)cc1
The melting point of the first is lower: 118 to 120 °C for the first, 147 to 148 °C for the second.

Compared with `COc1ccc([C@H]2NC(=S)N[C@H]2c2ccc(OC)cc2)cc1`, `Fc1ccc(-c2coc(-c3cn([C@H]4CN5CCC4CC5)nn3)c2)cn1` is lower in melting point: 226 to 227 °C for the first, 210 °C for the second.

Compared with `CCN(Cc1ccc(Cl)nc1)C(=NC#N)NC`, `Nc1ccc(CCCCOCCCCCCNCC(O)c2cc(O)cc(O)c2)cc1` (centres undefined) is higher in melting point: 122 to 123 °C for the first, 157 to 159 °C for the second.
